What was measured:
A172 = assay: Cell panel nuclear dye assay; format: cell-based; details: Homo sapiens, A 172, 120 h, Glioma (glioblastoma), 5-day incubation
Description: (§1) Cells were grown in RPMI1640, 10% FBS, 2 mM L-alanyl-L-glutamine, 1 mM Na pyruvate, or a special medium. Cells were seeded into 384-well plates and incubated in a humidified atmosphere of 5% CO2 at 37° C. Compound was added the day following cell seeding. At the same time, a time zero untreated cell plate was generated. After a 5-day incubation period, cells were fixed and stained to allow fluorescence imaging of nuclei.
(§2) Compounds were serially diluted in 2-fold steps from the highest test concentration specified, and assayed over 10 concentrations with a maximum assay concentration of 0.1% DMSO. Automated fluorescence microscopy was carried out using a Molecular Devices ImageXpress Micro XL high-content imager, and images were collected with a 4× objective. 16-bit TIFF images were acquired and analyzed with MetaXpress 5.1.0.41 software.
(§3) Cell proliferation was measured by the fluorescence intensity of an incorporated nuclear dye. The output is referred to as the relative cell count, where the measured nuclear intensity is transformed to percent of control (POC) using the following formula: […]
(§4) Cell count IC50 is the test compound concentration at 50% of maximal possible response. EC50 is the test compound concentration at the curve inflection point or half the effective response (parameter C of the fitted curve solution). GI50 is the concentration needed to reduce the observed growth by half (midway between the curve maximum and the time zero value). Activity area is an estimate of the integrated area above the curve. Activity area values range from 0-10, where a value of zero indicates no inhibition of proliferation at all concentrations, and a value of 10 indicates complete inhibition of proliferation at all concentrations. In rare instances, values <0 or >10 may be observed. In these instances, values <0 should be considered as equivalent to 0, whereas values >10 should be considered equivalent to 10.

DMS53 = assay: Cell panel nuclear dye assay; format: cell-based; details: Homo sapiens, DMS-53, 120 h, Lung (SCLC), 5-day incubation
Description: as §1, §2, §3, §4

Jiyoye = assay: Cell panel nuclear dye assay; format: cell-based; details: Homo sapiens, 120 h, Lymphoma (Burkitt's), 5-day incubation
Description: as §1, §2, §3, §4

MT-3 = assay: Cell panel nuclear dye assay; format: cell-based; details: 120 h, Colon, 5-day incubation
Description: as §1, §2, §3, §4

NCI-H446 = assay: Cell panel nuclear dye assay; format: cell-based; details: Homo sapiens, 120 h, Lung (SCLC), 5-day incubation
Description: as §1, §2, §3, §4

NCI-H661 = assay: Cell panel nuclear dye assay; format: cell-based; details: Homo sapiens, 120 h, Lung (NSCLC), 5-day incubation
Description: as §1, §2, §3, §4

NCI-H69 = assay: Cell panel nuclear dye assay; format: cell-based; details: Homo sapiens, 120 h, Lung (SCLC), 5-day incubation
Description: as §1, §2, §3, §4

NCI-H747 = assay: Cell panel nuclear dye assay; format: cell-based; details: Homo sapiens, 120 h, Colon (cecum), 5-day incubation
Description: as §1, §2, §3, §4

SCC-9 = assay: Cell panel nuclear dye assay; format: cell-based; details: Homo sapiens, 120 h, Head & neck (squamous cell carcinoma, tongue), 5-day incubation
Description: as §1, §2, §3, §4

SHP-77 = assay: Cell panel nuclear dye assay; format: cell-based; details: Homo sapiens, SHP77, 120 h, Lung (SCLC), 5-day incubation
Description: as §1, §2, §3, §4

SK-LMS-1 = assay: Cell panel nuclear dye assay; format: cell-based; details: Homo sapiens, 120 h, Sarcoma (leiomyosarcoma), 5-day incubation
Description: as §1, §2, §3, §4

ST486 = assay: Cell panel nuclear dye assay; format: cell-based; details: Homo sapiens, 120 h, Lymphoma (Burkitt's), 5-day incubation
Description: as §1, §2, §3, §4

SU-DHL-8 = assay: Cell panel nuclear dye assay; format: cell-based; details: Homo sapiens, 120 h, Lymphoma (large cell), 5-day incubation
Description: as §1, §2, §3, §4

SW620 = assay: Cell panel nuclear dye assay; format: cell-based; details: Homo sapiens, SW-620, 120 h, Colon, 5-day incubation
Description: as §1, §2, §3, §4

TUR = assay: Cell panel nuclear dye assay; format: cell-based; details: 120 h, Lymphoma (histiocytic), 5-day incubation
Description: as §1, §2, §3, §4

[1] = system: LN229 gliobastoma cells MGMT−/MMR−; assay: Anti-cancer assay, isogenic LN229 cells, nuclei count (Examples 43, 46); format: cell-based; details: Homo sapiens, LN-229; MGMT negative/MMR negative; Example 46, maximum concentration 200 μM; read-out: IC50 for causing the death of LN229 cells
rats = assay: Animal model toxicity testing in rats; details: tested doses exceeded those at which A1 caused 100% mortality

NC(=O)c1ncn2c(=O)n(CCOC(F)(F)F)nnc12 [Compound I-1, 4-Oxo-3-(2-(trifluoromethoxy)ethyl)-3,4-dihydroimidazo[5,1-d][1,2,3,5]tetrazine-8-carboxamide]
EC50 (A172): 30 to 70 µM | IC50 (A172): 70 to 150 µM | EC50 (DMS53): ≤ 30 µM | IC50 (DMS53): ≤ 30 µM | EC50 (Jiyoye): 30 to 70 µM | IC50 (Jiyoye): 30 to 70 µM | EC50 (MT-3): ≤ 30 µM | IC50 (MT-3): ≤ 30 µM | EC50 (NCI-H446): 30 to 70 µM | IC50 (NCI-H446): 30 to 70 µM | EC50 (NCI-H661): ≤ 30 µM | IC50 (NCI-H661): > 150 µM | EC50 (NCI-H69): ≤ 30 µM | IC50 (NCI-H69): ≤ 30 µM | EC50 (NCI-H747): > 150 µM | IC50 (NCI-H747): > 150 µM | EC50 (SCC-9): 70 to 150 µM | IC50 (SCC-9): 70 to 150 µM | EC50 (SHP-77): 30 to 70 µM | IC50 (SHP-77): 70 to 150 µM | EC50 (SK-LMS-1): 30 to 70 µM | IC50 (SK-LMS-1): 30 to 70 µM | EC50 (ST486): ≤ 30 µM | IC50 (ST486): ≤ 30 µM | EC50 (SU-DHL-8): ≤ 30 µM | IC50 (SU-DHL-8): ≤ 30 µM | EC50 (SW620): 70 to 150 µM | IC50 (SW620): 70 to 150 µM | EC50 (TUR): ≤ 30 µM | IC50 (TUR): ≤ 30 µM | IC50 [1]: < 20 µM | adverse clinical signs (rats): no adverse clinical signs were observed

Reference: patent publication US20250066371A1, “FLUOROALKOXYALKYLENE-DIHYDROIMIDAZO[5,1-D]TETRAZINONE COMPOUNDS AND RELATED COMPOUNDS AND THEIR USE IN TREATING MEDICAL CONDITIONS” (priority 2023, published 2025)
